Test results as given in ChEMBL document CHEMBL1201862, “PubChem BioAssay data set” (2004).
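Results reflect a 48-hour exposure of cells in 96-well plates to compound at five concentrations. GI50 marks 50% less growth.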 Activity calls are given as the source filed them. No stated cut-off is given here; in the data, active = GI50 up to about 1.1 µM and inactive = higher.

Experiments:
Test in all cases: growth of human tumour cells (NCI), 48 h
[1] = tested on: LOX IMVI
[2] = tested on: OVCAR-4
[3] = tested on: K562
[4] = tested on: COLO 205
[5] = tested on: HCT-15
[6] = tested on: MDA-N
[7] = tested on: SW-620
[8] = tested on: HT-29
[9] = tested on: 786-0
[10] = tested on: NCI-H226
[11] = tested on: ACHN
[12] = tested on: SN12C
[13] = tested on: NCI-H460
[14] = tested on: HL-60
[15] = tested on: M14
[16] = tested on: SF-268
[17] = tested on: OVCAR-8
[18] = tested on: Hs-578T
[19] = tested on: UACC-257
[20] = tested on: HOP-92

c1ccc2c(c1)SCCC2NC1=NCCO1 (configuration not stated)
GI50 [1]: > 100 µM (inactive) | GI50 [2]: > 100 µM (inactive) | GI50 [3]: > 100 µM (inactive) | GI50 [4]: > 100 µM (inactive) | GI50 [5]: > 100 µM | GI50 [6]: > 100 µM (inactive) | GI50 [7]: > 100 µM (inactive) | GI50 [8]: 89.5 µM (inactive) | GI50 [9]: > 100 µM (inactive) | GI50 [10]: > 100 µM (inactive) | GI50 [11]: > 100 µM (inactive) | GI50 [12]: > 100 µM (inactive) | GI50 [13]: > 100 µM (inactive) | GI50 [14]: > 100 µM (inactive) | GI50 [15]: > 100 µM (inactive) | GI50 [16]: > 100 µM (inactive) | GI50 [17]: > 100 µM (inactive) | GI50 [18]: > 100 µM (inactive)

Cc1nc2sccn2c1/C=C1/C(=O)Nc2cccc(Cl)c21
GI50 [1]: > 100 µM (inactive) | GI50 [19]: > 100 µM (inactive) | GI50 [3]: 45.3 µM (inactive) | GI50 [20]: > 100 µM (inactive) | GI50 [4]: 71.4 µM (inactive) | GI50 [5]: 47.2 µM | GI50 [6]: 12.6 µM (inactive) | GI50 [7]: 41.4 µM (inactive) | GI50 [8]: 56.2 µM (inactive) | GI50 [9]: > 100 µM (inactive) | GI50 [11]: > 100 µM (inactive) | GI50 [12]: > 100 µM (inactive) | GI50 [13]: 92 µM (inactive) | GI50 [14]: 52.7 µM (inactive) | GI50 [15]: > 100 µM (inactive) | GI50 [16]: > 100 µM (inactive) | GI50 [17]: > 100 µM (inactive) | GI50 [18]: > 100 µM (inactive)

Cc1cc(S(=O)(=O)Nc2nc3ccsc3c(=O)n2N)c(S)cc1Cl
GI50 [1]: 78.9 µM (inactive) | GI50 [2]: 68.1 µM (inactive) | GI50 [19]: > 100 µM (inactive) | GI50 [3]: 86.9 µM (inactive) | GI50 [4]: > 100 µM (inactive) | GI50 [5]: 50.7 µM | GI50 [6]: > 100 µM (inactive) | GI50 [7]: > 100 µM (inactive) | GI50 [8]: > 100 µM (inactive) | GI50 [9]: > 100 µM (inactive) | GI50 [10]: 34.6 µM (inactive) | GI50 [11]: 56.9 µM (inactive) | GI50 [12]: > 100 µM (inactive) | GI50 [13]: 53.2 µM (inactive) | GI50 [14]: > 100 µM (inactive) | GI50 [15]: 68.7 µM (inactive) | GI50 [16]: 42.2 µM (inactive) | GI50 [17]: > 100 µM (inactive)

C/C=C\C(CC(=O)NCCC1CN(S(=O)(=O)C(F)(F)F)c2ccccc21)CC(=O)OC (configuration not stated)
GI50 [2]: 63.5 µM (inactive) | GI50 [19]: 48.2 µM (inactive) | GI50 [3]: 51.8 µM (inactive) | GI50 [20]: 23.9 µM (inactive) | GI50 [4]: 24.8 µM (inactive) | GI50 [5]: 42.8 µM | GI50 [6]: 40 µM (inactive) | GI50 [7]: 55.8 µM (inactive) | GI50 [8]: 21.8 µM (inactive) | GI50 [9]: 34.2 µM (inactive) | GI50 [11]: 37.6 µM (inactive) | GI50 [13]: 35.6 µM (inactive) | GI50 [15]: 36.5 µM (inactive) | GI50 [17]: 38.8 µM (inactive) | GI50 [18]: 22.6 µM (inactive)

CC(C)Cn1cnc2c(Sc3c([N+](=O)[O-])ncn3C)nc(N)nc21
GI50 [1]: > 59.8 µM (inactive) | GI50 [2]: 23.6 µM (inactive) | GI50 [19]: > 49.3 µM (inactive) | GI50 [3]: > 47.3 µM (inactive) | GI50 [20]: 14.9 µM (inactive) | GI50 [4]: > 25.6 µM (inactive) | GI50 [5]: > 59.8 µM | GI50 [6]: 36.1 µM (inactive) | GI50 [7]: > 61.5 µM (inactive) | GI50 [8]: > 100 µM (inactive) | GI50 [9]: > 61 µM (inactive) | GI50 [10]: > 100 µM (inactive) | GI50 [11]: > 63.8 µM (inactive) | GI50 [12]: > 64.6 µM (inactive) | GI50 [13]: > 63 µM (inactive) | GI50 [14]: 30.3 µM (inactive) | GI50 [15]: > 52.2 µM (inactive) | GI50 [16]: > 100 µM (inactive) | GI50 [17]: > 61.4 µM (inactive)

Cc1ccc(N2C(=O)C(=O)N(/N=C3\C(=O)Nc4ccccc43)C2=S)cc1
GI50 [1]: 31.6 µM (inactive) | GI50 [19]: > 100 µM (inactive) | GI50 [3]: 37.1 µM (inactive) | GI50 [20]: > 100 µM (inactive) | GI50 [4]: 42 µM (inactive) | GI50 [5]: 39.8 µM | GI50 [6]: 59.7 µM (inactive) | GI50 [7]: 44.2 µM (inactive) | GI50 [8]: 58.6 µM (inactive) | GI50 [9]: 46.6 µM (inactive) | GI50 [11]: 67.6 µM (inactive) | GI50 [12]: > 100 µM (inactive) | GI50 [13]: 31.5 µM (inactive) | GI50 [14]: 0.0998 µM (active) | GI50 [15]: > 100 µM (inactive) | GI50 [16]: 58.5 µM (inactive) | GI50 [17]: 59.3 µM (inactive) | GI50 [18]: > 100 µM (inactive)

Oc1c(Cl)c(Cl)c(O)c2c1CCCC2
GI50 [1]: 3.48 µM (inactive) | GI50 [19]: 16.8 µM (inactive) | GI50 [20]: 1.85 µM (inactive) | GI50 [4]: 1.83 µM (inactive) | GI50 [5]: 12.9 µM | GI50 [6]: 14.3 µM (inactive) | GI50 [7]: 1.99 µM (inactive) | GI50 [8]: 19.1 µM (inactive) | GI50 [9]: 1.93 µM (inactive) | GI50 [10]: 1.88 µM (inactive) | GI50 [11]: 1.75 µM (inactive) | GI50 [12]: 14.7 µM (inactive) | GI50 [13]: 15.1 µM (inactive) | GI50 [15]: 15.5 µM (inactive) | GI50 [16]: 11.6 µM (inactive) | GI50 [17]: 18.7 µM (inactive) | GI50 [18]: 14.6 µM (inactive)

N=C(N)NC(=N)Nc1ccccc1.Sc1nc2ccccc2s1
GI50 [1]: > 100 µM (inactive) | GI50 [2]: > 100 µM (inactive) | GI50 [19]: > 100 µM (inactive) | GI50 [3]: > 100 µM (inactive) | GI50 [4]: > 100 µM (inactive) | GI50 [5]: > 100 µM | GI50 [6]: > 100 µM (inactive) | GI50 [7]: > 100 µM (inactive) | GI50 [8]: > 100 µM (inactive) | GI50 [9]: > 100 µM (inactive) | GI50 [10]: > 100 µM (inactive) | GI50 [11]: > 100 µM (inactive) | GI50 [12]: > 100 µM (inactive) | GI50 [13]: > 100 µM (inactive) | GI50 [14]: > 100 µM (inactive) | GI50 [15]: > 100 µM (inactive) | GI50 [16]: > 100 µM (inactive) | GI50 [17]: > 100 µM (inactive) | GI50 [18]: > 100 µM (inactive)
